Data reported in patent publication US20250235543A1, “MODIFIED PROTEINS AND PROTEIN DEGRADERS” (Cullgen (Shanghai), Inc., priority 2021, published 2025).
Read-outs that look alike come from different tables or passages of the source.

Tests used:
cyclin D1 = assay: Cyclin D1 percentage degradation in Calu-1 cells (immunoblotting); format: cell-based; settings: 16 hours
Summary of the method: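 Cells were rinsed once in cold PBS and lysed in cold RIPA buffer containing protease and phosphatase inhibitors, with gentle agitation at 4° C. for 30 min. Lysates were spun at 13,000 rpm for 10 min at 4° C., protein was measured by BCA, and samples were boiled in Laemmli buffer at 99° C. for 5 min before SDS-PAGE immunoblotting.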

CDK4 = target: T1, CDK4 (Homo sapiens, UniProt P11802); assay: CDK4 percentage degradation in Calu-1 cells (immunoblotting); format: cell-based; settings: for inhibition at 0.2 µM: read-out: CDK4 Degradation (200 nM); for inhibition at 10 µM: read-out: CDK4 Degradation (10 μM)
T1 construct: endogenous in cells; host or cells: Calu-1
Summary of the method: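 Cultured cells were rinsed once in cold PBS and lysed in cold RIPA buffer containing protease and phosphatase inhibitors, with gentle agitation at 4° C. for 30 min. Lysates were centrifuged at 13,000 rpm for 10 min at 4° C., and protein was quantified by BCA. Samples were then separated by SDS-PAGE, detected with ECL, and the CDK4 bands quantified in Image Lab.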

T1 sequence (P11802 2-303 limits assumed): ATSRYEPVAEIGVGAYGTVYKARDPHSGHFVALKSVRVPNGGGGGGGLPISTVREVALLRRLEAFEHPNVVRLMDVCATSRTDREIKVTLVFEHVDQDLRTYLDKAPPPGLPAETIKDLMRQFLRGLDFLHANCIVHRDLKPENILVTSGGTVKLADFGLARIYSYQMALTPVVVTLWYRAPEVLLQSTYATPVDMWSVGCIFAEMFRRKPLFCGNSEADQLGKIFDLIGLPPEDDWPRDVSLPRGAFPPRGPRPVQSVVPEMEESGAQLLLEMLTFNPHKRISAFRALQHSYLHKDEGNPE
T1 sequence (P24385 whole entry partner): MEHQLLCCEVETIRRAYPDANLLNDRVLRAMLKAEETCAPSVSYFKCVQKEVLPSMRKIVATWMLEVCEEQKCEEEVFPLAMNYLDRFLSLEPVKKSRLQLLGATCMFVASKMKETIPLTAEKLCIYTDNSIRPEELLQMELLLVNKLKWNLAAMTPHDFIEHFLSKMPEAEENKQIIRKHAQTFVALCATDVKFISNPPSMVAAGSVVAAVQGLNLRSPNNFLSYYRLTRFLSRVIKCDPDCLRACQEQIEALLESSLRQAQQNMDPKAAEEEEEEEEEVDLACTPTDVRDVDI
T1 sequence (Q16531 2-1140 limits assumed, further chain): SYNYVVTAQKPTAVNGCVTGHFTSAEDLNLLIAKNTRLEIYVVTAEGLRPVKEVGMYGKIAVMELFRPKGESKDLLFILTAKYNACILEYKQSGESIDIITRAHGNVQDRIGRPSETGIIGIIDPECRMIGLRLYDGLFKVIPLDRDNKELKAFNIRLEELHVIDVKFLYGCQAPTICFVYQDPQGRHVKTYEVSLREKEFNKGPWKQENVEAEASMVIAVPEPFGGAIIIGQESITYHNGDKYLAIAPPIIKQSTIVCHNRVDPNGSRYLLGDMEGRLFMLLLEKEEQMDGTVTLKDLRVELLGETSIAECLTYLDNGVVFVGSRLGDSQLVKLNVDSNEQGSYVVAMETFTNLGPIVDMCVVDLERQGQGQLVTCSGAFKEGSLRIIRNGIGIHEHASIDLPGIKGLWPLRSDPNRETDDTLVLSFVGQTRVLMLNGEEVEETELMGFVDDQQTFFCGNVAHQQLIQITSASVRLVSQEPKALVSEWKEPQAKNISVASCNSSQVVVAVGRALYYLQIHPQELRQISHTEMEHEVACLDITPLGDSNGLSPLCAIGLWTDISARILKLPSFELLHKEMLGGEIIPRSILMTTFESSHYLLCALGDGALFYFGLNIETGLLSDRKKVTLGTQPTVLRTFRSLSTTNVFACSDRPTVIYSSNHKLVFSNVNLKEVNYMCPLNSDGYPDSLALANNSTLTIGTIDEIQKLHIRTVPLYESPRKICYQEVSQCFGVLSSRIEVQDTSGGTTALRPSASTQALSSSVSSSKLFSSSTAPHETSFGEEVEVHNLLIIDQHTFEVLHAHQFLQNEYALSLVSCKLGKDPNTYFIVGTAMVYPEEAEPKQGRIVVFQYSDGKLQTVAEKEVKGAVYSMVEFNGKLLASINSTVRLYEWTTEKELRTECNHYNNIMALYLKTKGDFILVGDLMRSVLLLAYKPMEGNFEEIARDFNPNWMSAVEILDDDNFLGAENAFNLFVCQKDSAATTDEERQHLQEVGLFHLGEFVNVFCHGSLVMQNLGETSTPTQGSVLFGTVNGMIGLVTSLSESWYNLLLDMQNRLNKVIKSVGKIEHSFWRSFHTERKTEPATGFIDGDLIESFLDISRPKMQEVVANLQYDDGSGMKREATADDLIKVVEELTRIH

| inhibition at 0.2 µM (CDK4; Calu-1 cells, 200 nM, 16 hours) [%] | inhibition at 10 µM (CDK4; Calu-1 cells, 16 hours) [%] | Compound | CyclinD1 Degradation (200 nM) (cyclin D1) | CyclinD1 Degradation (10 μM) (cyclin D1) | inhibition at 0.2 µM (CDK4; Calu-1, 16 h) [%] |
| --- | --- | --- | --- | --- | --- |
| < 30 |  | CC(=O)c1c(C)c2cnc(Nc3ccc(N4CCN(C(=O)CCCCCCNc5ccc(C)c(C(=O)Nc6nc(C)c(C)s6)c5)CC4)cn3)nc2n(C2CCCC2)c1=O [CPD-109, 5-((7-(4-(6-((6-Acetyl-8-cyclopentyl-5-methyl-7-oxo-7,8-dihydropyrido[2,3-d]pyrimidin-2-yl)amino)pyridin-3-yl)piperazin-1-yl)-7-oxoheptyl)amino)-N-(4,5-dimethylthiazol-2-yl)-2-methylbenzamide] | D (protein percentage degradation <30%) |  |  |
|  | < 30 | Cc1nc(NC(=O)c2ccccc2NC(=O)CCCCCCNC(=O)CN2CCN(Cc3ccc(Nc4ncc(F)c(-c5cc(F)c6nc(C)n(C(C)C)c6c5)n4)nc3)CC2)sc1C [CPD-277, N-(4,5-Dimethylthiazol-2-yl)-2-(7-(2-(4-((6-((5-fluoro-4-(4-fluoro-1-isopropyl-2-methyl-1H-benzo[d]imidazol-6-yl)pyrimidin-2-yl)amino)pyridin-3-yl)methyl)piperazin-1-yl)acetamido)heptanamido)benzamide] |  | D (protein percentage degradation < 30%) |  |
|  |  | CC(=O)c1c(C)c2cnc(Nc3ccc(N4CCN(C(=O)CCCCC(=O)Nc5ccccc5C(=O)Nc5nc(C)c(C)s5)CC4)cn3)nc2n(C2CCCC2)c1=O [CPD-156, 2-(6-(4-(6-((6-Acetyl-8-cyclopentyl-5-methyl-7-oxo-7,8-dihydropyrido[2,3-d]pyrimidin-2-yl)amino)pyridin-3-yl)piperazin-1-yl)-6-oxohexanamido)-N-(4,5-dimethylthiazol-2-yl)benzamide] | D (protein percentage degradation <30%) |  | < 30 |
| 50 to 80 |  | CC(=O)c1c(C)c2cnc(Nc3ccc(N4CCN(CC(=O)NCCOCCOCCC(=O)Nc5ccccc5C(=O)Nc5nc(C(F)(F)F)c(C)s5)CC4)cn3)nc2n(C2CCCC2)c1=O [CPD-077, 2-(3-(2-(2-(2-(4-(6-((6-Acetyl-8-cyclopentyl-5-methyl-7-oxo-7,8-dihydropyrido[2,3-d]pyrimidin-2-yl)amino)pyridin-3-yl)piperazin-1-yl)acetamido)ethoxy)ethoxy)propanamido)-N-(5-methyl-4-(trifluoromethyl)thiazol-2-yl)benzamide] | D (protein percentage degradation <30%) |  |  |
| > 80 |  | CC(=O)c1c(C)c2cnc(Nc3ccc(N4CCN(CC(=O)NCCCCCCCNc5cc(C)ccc5C(=O)Nc5nc(C)c(C)s5)CC4)cn3)nc2n(C2CCCC2)c1=O [CPD-368, 2-((7-(2-(4-(6-((6-Acetyl-8-cyclopentyl-5-methyl-7-oxo-7,8-dihydropyrido[2,3-d]pyrimidin-2-yl)amino)pyridin-3-yl)piperazin-1-yl)acetamido)heptyl)amino)-N-(4,5-dimethylthiazol-2-yl)-4-methylbenzamide] | A (protein percentage degradation >=80%) |  |  |
|  | < 30 | Cc1nc(NC(=O)c2ccccc2NC(=O)CCCNC(=O)CN2CCN(Cc3ccc(Nc4ncc(F)c(-c5cc(F)c6nc(C)n(C(C)C)c6c5)n4)nc3)CC2)sc1C [CPD-274, N-(4,5-Dimethylthiazol-2-yl)-2-(4-(2-(4-((6-((5-fluoro-4-(4-fluoro-1-isopropyl-2-methyl-1H-benzo[d]imidazol-6-yl)pyrimidin-2-yl)amino)pyridin-3-yl)methyl)piperazin-1-yl)acetamido)butanamido)benzamide] |  | B (protein percentage degradation < 80%, and >= 50%) |  |
|  |  | CC(=O)c1c(C)c2cnc(Nc3ccc(N4CCN(C(=O)CCOCCOCCOCCNc5ccc(C)c(C(=O)Nc6nc(C)c(C)s6)c5)CC4)cn3)nc2n(C2CCCC2)c1=O [CPD-111, 5-((2-(2-(2-(3-(4-(6-((6-Acetyl-8-cyclopentyl-5-methyl-7-oxo-7,8-dihydropyrido[2,3-d]pyrimidin-2-yl)amino)pyridin-3-yl)piperazin-1-yl)-3-oxopropoxy)ethoxy)ethoxy)ethyl)amino)-N-(4,5-dimethylthiazol-2-yl)-2-methylbenzamide] | D (protein percentage degradation <30%) |  | < 30 |
| < 30 |  | CC(=O)c1c(C)c2cnc(Nc3ccc(N4CCN(CC(=O)NCCOCCOCCOCCOCCOCCNc5ccc(C(=O)Nc6ncc(C7CC7)s6)c(C)c5)CC4)cn3)nc2n(C2CCCC2)c1=O [CPD-029, 4-((1-(4-(6-((6-Acetyl-8-cyclopentyl-5-methyl-7-oxo-7,8-dihydropyrido[2,3-d]pyrimidin-2-yl)amino)pyridin-3-yl)piperazin-1-yl)-2-oxo-6,9,12,15,18-pentaoxa-3-azaicosan-20-yl)amino)-N-(5-cyclopropylthiazol-2-yl)-2-methylbenzamide] | D (protein percentage degradation <30%) |  |  |
| 50 to 80 |  | CC(=O)c1c(C)c2cnc(Nc3ccc(N4CCN(CC(=O)NCCCCC(=O)Nc5ccccc5C(=O)Nc5ccc(C)cn5)CC4)cn3)nc2n(C2CCCC2)c1=O [CPD-269, 2-(5-(2-(4-(6-((6-Acetyl-8-cyclopentyl-5-methyl-7-oxo-7,8-dihydropyrido[2,3-d]pyrimidin-2-yl)amino)pyridin-3-yl)piperazin-1-yl)acetamido)pentanamido)-N-(5-methylpyridin-2-yl)benzamide] | B (protein percentage degradation <80%, and >=50%) |  |  |
|  |  | CC(=O)c1c(C)c2cnc(Nc3ccc(N4CCN(CC(=O)NCCOCCOCCOCCOCCOCCNc5ccc(C(=O)Nc6ccc(C)cc6)c(C)c5)CC4)cn3)nc2n(C2CCCC2)c1=O [CPD-025, 4-((1-(4-(6-((6-Acetyl-8-cyclopentyl-5-methyl-7-oxo-7,8-dihydropyrido[2,3-d]pyrimidin-2-yl)amino)pyridin-3-yl)piperazin-1-yl)-2-oxo-6,9,12,15,18-pentaoxa-3-azaicosan-20-yl)amino)-2-methyl-N-(p-tolyl)benzamide] | D (protein percentage degradation <30%) |  | < 30 |
|  | < 30 | Cc1nc(NC(=O)c2ccccc2NC(=O)CCCCCCCNC(=O)CN2CCN(c3ccc(Nc4ncc5cc(C(=O)N(C)C)n(C6CCCC6)c5n4)nc3)CC2)sc1C [CPD-292, 7-Cyclopentyl-2-((5-(4-(2-((8-((2-((4,5-dimethylthiazol-2-yl)carbamoyl)phenyl)amino)-8-oxooctyl)amino)-2-oxoethyl)piperazin-1-yl)pyridin-2-yl)amino)-N,N-dimethyl-7H-pyrrolo[2,3-d]pyrimidine-6-carboxamide] |  | B (protein percentage degradation < 80%, and >= 50%) |  |
|  | < 30 | Cc1nc(NC(=O)c2ccccc2NC(=O)CCOCCOCCOCCOCCOCCNC(=O)CN2CCN(Cc3ccc(Nc4ncc(F)c(-c5cc(F)c6nc(C)n(C(C)C)c6c5)n4)nc3)CC2)sc1C [CPD-284, N-(4,5-Dimethylthiazol-2-yl)-2-(1-(4-((6-((5-fluoro-4-(4-fluoro-1-isopropyl-2-methyl-1H-benzo[d]imidazol-6-yl)pyrimidin-2-yl)amino)pyridin-3-yl)methyl)piperazin-1-yl)-2-oxo-6,9,12,15,18-pentaoxa-3-azahenicosan-21-amido)benzamide] |  | D (protein percentage degradation < 30%) |  |
| < 30 |  | CC(=O)c1c(C)c2cnc(Nc3ccc(N4CCN(CC(=O)NCCOCCOCCC(=O)Nc5ccccc5C(=O)Nc5nc(C6CCOCC6)c(C)s5)CC4)cn3)nc2n(C2CCCC2)c1=O [CPD-062, 2-(3-(2-(2-(2-(4-(6-((6-Acetyl-8-cyclopentyl-5-methyl-7-oxo-7,8-dihydropyrido[2,3-d]pyrimidin-2-yl)amino)pyridin-3-yl)piperazin-1-yl)acetamido)ethoxy)ethoxy)propanamido)-N-(5-methyl-4-(tetrahydro-2H-pyran-4-yl)thiazol-2-yl)benzamide] | D (protein percentage degradation <30%) |  |  |
| 50 to 80 |  | CC(=O)c1c(C)c2cnc(Nc3ccc(N4CCN(CC(=O)NCCOCCOCCOCCNc5cccc(C(=O)Nc6nc(C)c(C)s6)c5C)CC4)cn3)nc2n(C2CCCC2)c1=O [CPD-105, 3-((1-(4-(6-((6-Acetyl-8-cyclopentyl-5-methyl-7-oxo-7,8-dihydropyrido[2,3-d]pyrimidin-2-yl)amino)pyridin-3-yl)piperazin-1-yl)-2-oxo-6,9,12-trioxa-3-azatetradecan-14-yl)amino)-N-(4,5-dimethylthiazol-2-yl)-2-methylbenzamide] | A (protein percentage degradation >=80%) |  |  |
| 50 to 80 |  | CC(=O)c1c(C)c2cnc(Nc3ccc(N4CCN(CC(=O)NCCOCCOCCC(=O)Nc5ccc(F)cc5C(=O)Nc5nc(C)c(C)s5)CC4)cn3)nc2n(C2CCCC2)c1=O [CPD-152, 2-(3-(2-(2-(2-(4-(6-((6-Acetyl-8-cyclopentyl-5-methyl-7-oxo-7,8-dihydropyrido[2,3-d]pyrimidin-2-yl)amino)pyridin-3-yl)piperazin-1-yl)acetamido)ethoxy)ethoxy)propanamido)-N-(4,5-dimethylthiazol-2-yl)-5-fluorobenzamide] | A (protein percentage degradation >=80%) |  |  |
|  | < 30 | Cc1nc(NC(=O)c2ccccc2NC(=O)CCCCNC(=O)CN2CCN(Cc3ccc(Nc4ncc(F)c(-c5cc(F)c6nc(C)n(C(C)C)c6c5)n4)nc3)CC2)sc1C [CPD-275, N-(4,5-Dimethylthiazol-2-yl)-2-(5-(2-(4-((6-((5-fluoro-4-(4-fluoro-1-isopropyl-2-methyl-1H-benzo[d]imidazol-6-yl)pyrimidin-2-yl)amino)pyridin-3-yl)methyl)piperazin-1-yl)acetamido)pentanamido)benzamide] |  | D (protein percentage degradation < 30%) |  |
